US12187713B2, “Immunomodulators, compositions and methods thereof” (Betta Pharmaceuticals Co., Ltd, priority 2019, dated 2025)

Each compound was assayed against PD-1/PD-L1 (Homo sapiens (Human), UniProt Q9NZQ7) (assay: PD-1/PD-L1 Binding Assay (Alphascreen)). Conditions: numeric values.
How it was run: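 PD-1/PD-L1 binding detected by anti-6×His acceptor and streptavidin donor beads after 120 min in the dark at 25 °C. Beforehand, the two proteins were incubated 15 min at 25 °C with inhibitor at 0.015–300 nM (1% DMSO). IC50 comes from a log concentration–response curve.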

Chain of PD-1/PD-L1 (Q9NZQ7 19-238): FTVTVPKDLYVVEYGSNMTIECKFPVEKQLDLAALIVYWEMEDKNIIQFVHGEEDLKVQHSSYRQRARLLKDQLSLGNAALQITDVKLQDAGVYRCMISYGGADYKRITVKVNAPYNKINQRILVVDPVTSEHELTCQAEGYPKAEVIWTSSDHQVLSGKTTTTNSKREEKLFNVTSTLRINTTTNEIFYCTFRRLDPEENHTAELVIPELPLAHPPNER

| IC50 | Compound |
| --- | --- |
| 0.3 nM | Cc1c(Nc2nccc3cc(CNCC(=O)O)cnc23)cccc1-c1cccc(-c2nc3cc(CN4CCC[C@H]4C(=O)O)c(OC(F)F)cc3o2)c1C [Example 172, ((2-(3′-((3-(((carboxymethyl)amino)methyl)-1,7-naphthyridin-8-yl)amino)-2,2′-dimethyl-[1,1′-biphenyl]-3-yl)-6-(difluoromethoxy)benzo[d]oxazol-5-yl)methyl)-L-proline] |
| 0.93 nM | Cc1c(Nc2nccc3cc(CN4CCCC[C@H]4C(=O)O)cnc23)cccc1-c1cccc(-c2nc3cc(CN4CCC[C@H]4C(=O)O)c(OC(F)F)cc3o2)c1C [Example 173, (S)-1-((8-((3′-(5-(((S)-2-carboxypyrrolidin-1-yl)methyl)-6-(difluoromethoxy)benzo[d]oxazol-2-yl)-2,2′-dimethyl-[1,1′-biphenyl]-3-yl)amino)-1,7-naphthyridin-3-yl)methyl)piperidine-2-carboxylic acid] |
| 21 nM | Cc1c(Nc2nccc3cc(CN4CCC(F)C4)cnc23)cccc1-c1cccc(-c2nc3cc(CN4CCC[C@H]4C(=O)O)c(OC(F)F)cc3o2)c1C (stereo partly drawn) [Example 174, ((6-(difluoromethoxy)-2-(3′-((3-((3-fluoropyrrolidin-1-yl)methyl)-1,7-naphthyridin-8-yl)amino)-2,2′-dimethyl-[1,1′-biphenyl]-3-yl)benzo[d]oxazol-5-yl)methyl)-L-proline] |
| 0.9 nM | Cc1c(Nc2nccc3cc(CN4CCOCC4)cnc23)cccc1-c1cccc(-c2nc3cc(CN4CCC[C@H]4C(=O)O)c(OC(F)F)cc3o2)c1C [Example 176, ((6-(difluoromethoxy)-2-(2,2′-dimethyl-3′-((3-(morpholinomethyl)-1,7-naphthyridin-8-yl)amino)-[1,1′-biphenyl]-3-yl)benzo[d]oxazol-5-yl)methyl)-L-proline] |
| 0.94 nM | Cc1c(Nc2nccc3cc(CN4CCC4)cnc23)cccc1-c1cccc(-c2nc3cc(CN4CCC[C@H]4C(=O)O)c(OC(F)F)cc3o2)c1C [Example 177, ((2-(3′-((3-(azetidin-1-ylmethyl)-1,7-naphthyridin-8-yl)amino)-2,2′-dimethyl-[1,1′-biphenyl]-3-yl)-6-(difluoromethoxy)benzo[d]oxazol-5-yl)methyl)proline] |
| 3.9 nM | Cc1c(Nc2nccc3cc(CN4CC(O)C4)cnc23)cccc1-c1cccc(-c2nc3cc(CN4CCC[C@H]4C(=O)O)c(OC(F)F)cc3o2)c1C [Example 178, ((6-(difluoromethoxy)-2-(3′-((3-((3-hydroxyazetidin-1-yl)methyl)-1,7-naphthyridin-8-yl)amino)-2,2′-dimethyl-[1,1′-biphenyl]-3-yl)benzo[d]oxazol-5-yl)methyl)proline] |

Same assay, conditions: range symbols

| IC50 | Compound |
| --- | --- |
| 5 to 50 nM | Cc1c(-c2nc3cc(CN4CCC[C@H]4C(=O)O)c(OC(F)F)cc3o2)cccc1-c1cccc(-c2nc3cc(CN4CC[C@@H](CO)C4)cc(C#N)c3o2)c1C [Example 154, ((2-(3′-(7-cyano-5-(((R)-3-(hydroxymethyl)pyrrolidin-1-yl)methyl)benzo [d]oxazol-2-yl)-2,2′-dimethyl-[1,1′-biphenyl]-3-yl)-6-(difluoromethoxy)benzo[d]oxazol-5-yl)methyl)-L-proline] |
| 0.1 to 5 nM | Cc1c(-c2nc3cc(CN4CCC[C@H]4C(=O)O)c(OC(F)F)cc3o2)cccc1-c1cccc(-c2nc3cc(CNC4CC(O)C4)cc(C#N)c3o2)c1C (some centres unmarked) [Example 155] |
| 0.1 to 5 nM | Cc1c(-c2nc3cc(CN4CCC[C@H]4C(=O)O)c(OC(F)F)cc3o2)cccc1-c1cccc(-c2nc3cc(CN4CC(C)C(N)C4)cc(C#N)c3o2)c1C (some centres unmarked) [Example 156] |
| 0.1 to 5 nM | Cc1c(-c2nc3cc(CN4CCC[C@H]4C(=O)O)c(OC(F)F)cc3o2)cccc1-c1cccc(-c2nc3cc(CNCC4CNC4)cc(C#N)c3o2)c1C [Example 157] |
| 0.1 to 5 nM | Cc1c(-c2nc3cc(CN4CCC[C@H]4C(=O)O)c(OC(F)F)cc3o2)cccc1-c1cccc(-c2nc3cc(CN4CC(C)C(N(C)C)C4)cc(C#N)c3o2)c1C (stereo partly drawn) [Example 158, ((2-(3′-(7-cyano-5-((3-(dimethylamino)-4-methylpyrrolidin-1-yl)methyl)benzo[d]oxazol-2-yl)-2,2′-dimethyl-[1,1′-biphenyl]-3-yl)-6-(difluoromethoxy)benzo[d]oxazol-5-yl)methyl)-L-proline] |
| 0.1 to 5 nM | Cc1c(-c2nc3cc(CN4CCC[C@H]4C(=O)O)c(OC(F)F)cc3o2)cccc1-c1cccc(-c2nc3cc(CN4CC(C)(CN(C)C)C4)cc(C#N)c3o2)c1C [Example 159, ((2-(3′-(7-cyano-5-((3-((dimethylamino)methyl)-3-methylazetidin-1-yl)methyl)benzo[d]oxazol-2-yl)-2,2′-dimethyl-[1,1′-biphenyl]-3-yl)-6-(difluoromethoxy)benzo[d]oxazol-5-yl)methyl)-L-proline] |
| 0.1 to 5 nM | Cc1c(-c2nc3cc(CN4CCC[C@H]4C(=O)O)c(OC(F)F)cc3o2)cccc1-c1cccc(-c2nc3cc(CNCc4cn(C)cn4)cc(C#N)c3o2)c1C [Example 160, ((2-(3′-(7-cyano-5-((((1-methyl-1H-imidazol-4-yl)methyl)amino)methyl)benzo[d]oxazol-2-yl)-2,2′-dimethyl-[1,1′-biphenyl]-3-yl)-6-(difluoromethoxy)benzo[d]oxazol-5-yl)methyl)-L-proline] |
| 0.1 to 5 nM | Cc1c(-c2nc3cc(CN4CCC[C@H]4C(=O)O)c(OC(F)F)cc3o2)cccc1-c1cccc(-c2nc3cc(CN4CC(C)(CN)C4)cc(C#N)c3o2)c1C [Example 161, ((2-(3′-(5-((3-(aminomethyl)-3-methylazetidin-1-yl)methyl)-7-cyanobenzo[d]oxazol-2-yl)-2,2′-dimethyl-[1,1′-biphenyl]-3-yl)-6-(difluoromethoxy)benzo[d]oxazol-5-yl)methyl)-L-proline] |
| 5 to 50 nM | Cc1c(-c2nc3cc(CN4CCC[C@@H]4C(=O)O)c(OC(F)F)cc3o2)cccc1-c1cccc(-c2nc3cc(CN4CCC(F)C4)cc(C#N)c3o2)c1C (stereo partly drawn) [Example 163, ((2-(3′-(7-cyano-5-((3-fluoropyrrolidin-1-yl)methyl)benzo[d]oxazol-2-yl)-2,2′-dimethyl-[1,1′-biphenyl]-3-yl)-6-(difluoromethoxy)benzo[d]oxazol-5-yl)methyl)-D-proline] |
| 5 to 50 nM | Cc1c(-c2nc3cc(CN4CCC[C@H]4C(=O)O)c(OC(F)F)cc3o2)cccc1-c1cccc(-c2nc3cc(CN4CCC(C)(F)C4)cc(C#N)c3o2)c1C (stereo partly drawn) [Example 167, ((2-(3′-(7-cyano-5-((3-fluoro-3-methylpyrrolidin-1-yl)methyl)benzo[d]oxazol-2-yl)-2,2′-dimethyl-[1,1′-biphenyl]-3-yl)-6-(difluoromethoxy)benzo[d]oxazol-5-yl)methyl)-L-proline] |
| 0.1 to 5 nM | Cc1c(-c2nc3cc(CN4CCC[C@H]4C(=O)O)c(OC(F)F)cc3o2)cccc1-c1cccc(-c2nc3cc(CN4CC[C@@H](CF)C4)cc(C#N)c3o2)c1C [Example 168, ((2-(3′-(7-cyano-5-(((R)-3-(fluoromethyl)pyrrolidin-1-yl)methyl)benzo[d]oxazol-2-yl)-2,2′-dimethyl-[1,1′-biphenyl]-3-yl)-6-(difluoromethoxy)benzo[d]oxazol-5-yl)methyl)-L-proline] |

The next lines start with the compound.

| Compound | IC50 |
| --- | --- |
| Cc1c(-c2nc3cc(CN4CCC[C@H]4C(=O)O)c(OC(F)F)cc3o2)cccc1-c1cccc(-c2nc3cc(CN4CCC(F)C4)cc(C(F)(F)F)c3o2)c1C (stereo partly drawn) [Example 166, ((6-(difluoromethoxy)-2-(3′-(5-((3-fluoropyrrolidin-1-yl)methyl)-7-(trifluoromethyl)benzo[d]oxazol-2-yl)-2,2′-dimethyl-[1,1′-biphenyl]-3-yl)benzo[d]oxazol-5-yl)methyl)-L-proline] | 5 to 50 nM |
| Cc1c(-c2nc3cc(CN4CC[C@@H](C(=O)O)C4)c(OC(F)F)cc3o2)cccc1-c1cccc(-c2nc3cc(CN4CCCC4)cc(C#N)c3o2)c1C [Example 169, (R)-1-((2-(3′-(7-cyano-5-(pyrrolidin-1-ylmethyl)benzo[d]oxazol-2-yl)-2,2′-dimethyl-[1,1′-biphenyl]-3-yl)-6-(difluoromethoxy)benzo[d]oxazol-5-yl)methyl)pyrrolidine-3-carboxylic acid] | 0.1 to 5 nM |
| Cc1c(-c2nc3cc(CN4CCC[C@@H]4C(=O)O)c(OC(F)F)cc3o2)cccc1-c1cccc(-c2nc3cc(CN4CC(C)(C)C4)cnc3o2)c1C [Example 170, ((6-(difluoromethoxy)-2-(3′-(6-((3,3-dimethylazetidin-1-yl)methyl)oxazolo[5,4-b]pyridin-2-yl)-2,2′-dimethyl-[1,1′-biphenyl]-3-yl)benzo[d]oxazol-5-yl)methyl)-D-proline] | 5 to 50 nM |
| Cc1c(Nc2nccc3cc(CNCC4CCC(=O)N4)cnc23)cccc1-c1cccc(-c2nc3cc(CN4CCC[C@H]4C(=O)O)c(OC(F)F)cc3o2)c1C (some centres unmarked) [Example 179, ((6-(difluoromethoxy)-2-(2,2′-dimethyl-3′-((3-((((5-oxopyrrolidin-2-yl)methyl)amino)methyl)-1,7-naphthyridin-8-yl)amino)-[1,1′-biphenyl]-3-yl)benzo[d]oxazol-5-yl)methyl)proline] | 0.1 to 5 nM |
| Cc1c(Nc2nccc3cc(CN4CCC(O)C4)cnc23)cccc1-c1cccc(-c2nc3cc(CN4CC[C@H](C(=O)O)C4)c(OC(F)F)cc3o2)c1C (stereo partly drawn) [Example 180, (3S)-1-((6-(difluoromethoxy)-2-(3′-((3-((3-hydroxypyrrolidin-1-yl)methyl)-1,7-naphthyridin-8-yl)amino)-2,2′-dimethyl-[1,1′-biphenyl]-3-yl)benzo[d]oxazol-5-yl)methyl)pyrrolidine-3-carboxylic acid] | 0.1 to 5 nM |
| Cc1c(Nc2nccc3cc(CN4CCC(O)C4)cnc23)cccc1-c1cccc(-c2nc3cc(CN4CC[C@@H](C(=O)O)C4)c(OC(F)F)cc3o2)c1C (stereo partly drawn) [Example 181, (3R)-1-((6-(difluoromethoxy)-2-(3′-((3-((3-hydroxypyrrolidin-1-yl)methyl)-1,7-naphthyridin-8-yl)amino)-2,2′-dimethyl-[1,1′-biphenyl]-3-yl)benzo[d]oxazol-5-yl)methyl)pyrrolidine-3-carboxylic acid] | 0.1 to 5 nM |
